The values that follow come from patent US9949970B2, “Synthesis of new benzothiazole derivatives as potential anti-tubercular agents” (priority 2010, dated 2018).

The test has as its system M. tuberculosis isolates and drug resistance strains. Type of test: cell-based, Mycobacterium tuberculosis.
For `O=[N+]([O-])c1ccc(C=NNc2nc3ccc(OC(F)(F)F)cc3s2)s1` [Compound 3j, 5-nitro-2-thiophenecarbaldehyde 2-(6-trifluoromethoxy-1,3-benzothiazole-2-yl)hydrazone], the “In vitro activity (result in words)” value is recorded as “good in vitro activity”. To `O=C(NNc1nc2ccc(OC(F)(F)F)cc2s1)c1ccc([N+](=O)[O-])o1` [Compound 4e, N′2-(6-trifluoromethoxy-1,3-benzothiazol-2-yl)-5-nitro-2-furanecarbohydrazide] belongs “good in vitro activity”; to `O=C(Nc1nc2ccc(NC(=O)c3ccc([N+](=O)[O-])o3)cc2s1)c1ccc(F)cc1` [Compound 6f, N2-{2-[(4-fluorobenzoyl)amino]-1,3-benzothiazol-6-yl}-5-nitrofuramide], “good in vitro activity”. Turning to `O=C(Nc1nc2ccc(NC(=O)c3ccc([N+](=O)[O-])o3)cc2s1)c1ccc(Cl)cc1` [Compound 6g, N2-{2-[(4-chlorobenzoyl)amino]-1,3-benzothiazol-6-yl}-5-nitrofuramide], the “In vitro activity (result in words)” value is listed as “good in vitro activity”. As for `O=C(Nc1ccc2nc(NC(=O)c3ccc(F)cc3F)sc2c1)c1ccc([N+](=O)[O-])o1` [Compound 6i, N2-{2-[(2,4-difluorobenzoyl)amino]-1,3-benzothiazol-6-yl}-5-nitrofuramide], the “In vitro activity (result in words)” value is reported as “good in vitro activity”.

For the compound `O=C(Nc1nc2ccc(NC(=O)c3ccc([N+](=O)[O-])o3)cc2s1)c1cnccn1` [Compound 6p, N2-(6-{[(5-nitro-2-furyl)carbonyl]amino}-1,3-benzothiazol-2-yl)-2-pyrazinecarboxamide], the “In vitro activity (result in words)” value is given as “good in vitro activity”. As for `O=C(Nc1ccc2nc(NC(=O)c3ccc([N+](=O)[O-])o3)sc2c1)c1ccc([N+](=O)[O-])o1` [Compound 8a, N2-(2-{[(5-nitro-2-furyl)carbonyl]amino}-1,3-benzothiazol-6-yl}-5-nitro-2-furamide], the “In vitro activity (result in words)” value was “good in vitro activity”.

Take “N2-(2-{[(E)-3-(4-chlorophenyl)-2-propenoyl]amino}-1,3-benzothiazol-6-yl)-5-nitro-2-furamide [Compound 6w]”: the “In vitro activity (result in words)” value is on record as “good in vitro activity”.
